The subject of assay [1] is Human immunodeficiency virus 1. The assay can be described thus: Antiviral activity in cells infected with wild-type HIV1. Conditions: read-out: CIC95. The assay is classed as functional.
The test system of assay [2] is Human immunodeficiency virus 1. In words: Antiviral activity in cells infected with wild-type HIV1 NL4-3 in presence of FBS. The format is functional. The following applies: Human immunodeficiency virus 1, NL4-3; read-out: CIC95.
The target in assay [3] is Human immunodeficiency virus type 1 protease (Human immunodeficiency virus 1) (UniProt Q72874). The assay can be described thus: Ratio of inhibitory effect against HIV1 protease in cellular over isolated enzyme assay. The format is functional.
The test system of assay [4] is Human immunodeficiency virus 1. The assay can be described thus: Antiviral activity in cells infected with wild-type HIV1 1002-60C mutant. The assay is classed as functional. The following applies: Human immunodeficiency virus 1, 1002-60C; read-out: CIC95.
Assay [5] concerns Human immunodeficiency virus 1. The assay can be described thus: Antiviral activity in cells infected with wild-type HIV1 4X mutant. The assay is classed as functional. Conditions: Human immunodeficiency virus 1, 4X; read-out: CIC95.
Assay [6] deals with Human immunodeficiency virus 1. In words: Antiviral activity in cells infected with wild-type HIV1 1026-60C mutant. The format is functional. Conditions: Human immunodeficiency virus 1, 1026-60C; read-out: CIC95.
In assay [7] the target is Human immunodeficiency virus type 1 protease (Human immunodeficiency virus 1, UniProt Q72874). The assay can be described thus: Inhibitory activity against isolated wild-type HIV1 protease.
The subject of assay [8] is Human immunodeficiency virus 1. The assay can be described thus: Antiviral activity in cells infected with wild-type HIV1 1002-60C mutant in presence of NHS. The assay is classed as functional. The following applies: Human immunodeficiency virus 1, 1002-60C; read-out: CIC95.
For assay [9], the system named is Human immunodeficiency virus 1. The assay can be described thus: Antiviral activity in cells infected with wild-type HIV1 H93B in presence of NHS. The format is functional. Conditions: Human immunodeficiency virus 1, H93B; read-out: CIC95.
Assay [10] deals with Human immunodeficiency virus 1. In words: Antiviral activity in cells infected with wild-type HIV1 1026-60C mutant in presence of NHS. The assay is classed as functional. The following applies: Human immunodeficiency virus 1, 1026-60C; read-out: CIC95.
In assay [11] the test system is Human immunodeficiency virus 1. In words: Antiviral activity in cells infected with wild-type HIV1 4X mutant in presence of NHS. The format is functional. Conditions: Human immunodeficiency virus 1, 4X; read-out: CIC95.
For assay [12], the system named is Human immunodeficiency virus 1. In words: Antiviral activity in cells infected with wild-type HIV1 NL4-3 in presence of NHS. The following applies: Human immunodeficiency virus 1, NL4-3; read-out: CIC95. The format is functional.
In assay [13] the test system is Human immunodeficiency virus 1. The assay can be described thus: Antiviral activity in cells infected with wild-type HIV1 H93B in presence of FBS. Conditions: Human immunodeficiency virus 1, H93B; read-out: CIC95. The assay is classed as functional.

pIC50: −log10 of the molar value.

The values that follow come from ChEMBL document CHEMBL1149449 (Bioorg Med Chem Lett, 2006).

With `CC(C)(C)OC(=O)N[C@@H](Cc1ccccc1)[C@@H](O)C[C@]1(Cc2ccccc2)N=CC(C2c3ccccc3[C@H]3NC(=O)OC23)=C1O` (some centres undefined), the IC95 came to 0.2 µM in assay [1]; 0.156 µM in assay [2]; 2.5 µM in [4]; 2.5 µM in assay [5]; 0.625 µM in [6]; 10 µM in assay [8]. The IC95 in [9] came out at 0.312 µM; in [10] it was 1.25 µM; in assay [11] it was 5 µM; in assay [12], 0.625 µM; in [13], 0.156 µM. Further, the Ratio CIC95/IC50 in [3] was determined as 80. In addition, the pIC50 (commonly the IC50 on a negative log10 scale, so that one unit is a factor of ten) in assay [7] is 8.60.
Consider `CC(C)(C)CC(=O)N[C@@H](Cc1ccccc1)[C@@H](O)C[C@]1(Cc2ccccc2)N=CC(C2C[C@H](CC(N)=O)c3ccccc32)=C1O` (some centres undefined), for which the IC95 in assay [1] came to 12.5 µM. Moreover, the pIC50 in [7] was below 6.60.
`CC(C)(C)NC(=O)[C@@H]1CN(Cc2cccnc2)CCN1C[C@@H](O)C[C@@H](Cc1ccccc1)C(=O)N[C@H]1c2ccccc2C[C@H]1O`: the IC95 in [1] came to 0.025 µM; in [2], 0.05 µM; in [4], 0.4 µM; in [5], 0.1 µM; in [6], 0.4 µM; in [8], 0.4 µM. For the same compound, the IC95 in assay [9] was determined as 0.025 µM; in [10], 0.4 µM; in assay [11], 0.1 µM; in assay [12], 0.05 µM; in assay [13], 0.05 µM.
As to `CC(C)(C)OC(=O)N[C@@H](Cc1ccccc1)[C@@H](O)C[C@]1(Cc2ccccc2)N=CC(C2C[C@H](CC(N)=O)c3ccccc32)=C1O` (some centres undefined), the IC95 in [1] was above 0.4 µM. This compound gave a pIC50 in assay [7] of 7.69.
`CC(C)(C)CC(=O)N[C@@H](Cc1ccccc1)[C@@H](O)C[C@]1(Cc2ccccc2)N=CC(C2c3ccccc3[C@H]3NC(=O)OC23)=C1O` (some centres undefined): in [1], the IC95 came to 3.12 µM. For the same compound, the Ratio CIC95/IC50 in assay [3] was 32.5. Moreover, in assay [7], the pIC50 is 7.02.
For the compound `O=C(N[C@@H](Cc1ccccc1)[C@@H](O)C[C@]1(Cc2ccccc2)N=CC([C@@H]2CNC(=O)c3ccccc32)=C1O)O[C@H]1CCOC1`, in assay [1], the IC95 came out at 0.781 µM. Further, the Ratio CIC95/IC50 in assay [3] came to 137. The compound also had a negative logarithm of the IC50 (pIC50) in assay [7] of 8.24.
On to `O=C1N[C@@H]2c3ccccc3C(C3=C(O)[C@](Cc4ccccc4)(C[C@H](O)[C@H](Cc4ccccc4)NC(=O)O[C@H]4CCOC4)N=C3)C2O1` (some centres undefined), for which the IC95 in assay [1] was 0.4 µM; in [2], 0.625 µM; in assay [4], 1.25 µM; in [5] it was 0.156 µM; in [6] it was 0.312 µM; in assay [8], 1.25 µM. Besides, the IC95 worked out at 0.625 µM in assay [9]; 0.312 µM in assay [10]; 0.312 µM in assay [11]; 0.625 µM in [12]; 0.625 µM in assay [13]. Besides, in [3], the Ratio CIC95/IC50 came to 909. Further, the pIC50 in assay [7] was 9.36.
Take `O=C(N[C@@H](Cc1ccccc1)[C@@H](O)C[C@]1(Cc2ccccc2)N=CC([C@H]2c3ccccc3C[C@H]2O)=C1O)O[C@H]1CCOC1`: the IC95 stood at 0.1 µM in [1]; 0.078 µM in assay [2]; 1.25 µM in assay [4]; 0.625 µM in [5]; 0.156 µM in assay [6]; 1.25 µM in assay [8]. Further, the IC95 in assay [9] stood at 0.156 µM; in [10], 0.312 µM; in assay [11], 1.25 µM; in assay [12], 0.156 µM; in assay [13], 0.156 µM. Further, the Ratio CIC95/IC50 in [3] was determined as 50. This compound gave a pIC50 in [7] of 8.70.
For `NC(=O)O[C@@H]1Cc2ccccc2[C@@H]1C1=C(O)[C@](Cc2ccccc2)(C[C@H](O)[C@H](Cc2ccccc2)NC(=O)O[C@H]2CCOC2)N=C1`, in assay [1], the IC95 is 0.25 µM. The Ratio CIC95/IC50 in assay [3] came to 125. In [7], this compound showed a pIC50 of 8.70.
As to `NC(=O)C[C@H]1CC(C2=C(O)[C@](Cc3ccccc3)(C[C@H](O)[C@H](Cc3ccccc3)NC(=O)O[C@H]3CCOC3)N=C2)c2ccccc21` (some centres undefined), the IC95 in assay [1] was determined as 0.781 µM; in assay [2], 0.312 µM; in assay [4], 1.25 µM; in assay [5], 0.625 µM; in [6] it was 0.312 µM; in [8], 2.5 µM. For the same compound, the IC95 worked out at 1.25 µM in [9]; 0.625 µM in [10]; 1.25 µM in assay [11]; 0.625 µM in assay [12]; 1.25 µM in [13].
